Patent US20250346593A1, “IMIDAZO(1,2-1)PYRIDINE DERIVATIVES AS RIPK2 INHIBITORS” (Interline Therapeutics, Inc., priority 2022, published 2025)
Like-named read-outs stand apart in the source and are kept apart here.

Key:
[1] = test system: NF-κB pathway (SEAP) in THP1-Dual cells; test: THP-1 Dual cell SEAP assay (L18-MDP stimulated); assay type: cell-based; conditions: Homo sapiens, THP1-Dual, read-out: NFkB THP1 IC50
[2] = biological target: GST-RIPK2 fusion protein (human RIPK2 amino acids 1-310) (Homo sapiens (Human), UniProt O43353); test: RIPK2 binding competition assay (TR-FRET, Tracer 199)
[3] = read-out: RIPK2 IC50, RIPK2 binding competition assay

Sequence of GST-RIPK2 fusion protein (human RIPK2 amino acids 1-310) (O43353 1-310): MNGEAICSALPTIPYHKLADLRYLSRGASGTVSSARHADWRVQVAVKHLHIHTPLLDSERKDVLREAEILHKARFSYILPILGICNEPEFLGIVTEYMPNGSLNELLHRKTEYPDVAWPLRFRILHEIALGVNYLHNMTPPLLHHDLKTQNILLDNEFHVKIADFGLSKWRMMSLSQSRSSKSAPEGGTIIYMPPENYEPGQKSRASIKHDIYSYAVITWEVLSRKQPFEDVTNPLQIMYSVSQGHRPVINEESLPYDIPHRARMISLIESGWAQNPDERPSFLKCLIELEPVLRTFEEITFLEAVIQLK

## COc1cc2ncc(-c3cc(F)c(N)nc3OC)n2cc1S(=O)(=O)C(C)(C)C [Example 106, 5-(6-(tert-butylsulfonyl)-7-methoxyimidazo[1,2-a]pyridin-3-yl)-3-fluoro-6-methoxypyridin-2-amine]
[1]
  IC50: 250 to 1000 nM
[2]
  IC50: 2.5 to 20 nM

## COc1cc2ncc(-c3cc(C#N)c(N)nc3F)n2cc1S(=O)(=O)C(C)(C)C [Example 107, 2-amino-5-(6-(tert-butylsulfonyl)-7-methoxyimidazo[1,2-a]pyridin-3-yl)-6-fluoronicotinonitrile]
[1]
  IC50: > 1000 nM
[2]
  IC50: 2.5 to 20 nM

## COc1cc2ncc(-c3ccc(N)nc3C#N)n2cc1S(=O)(=O)C(C)(C)C [Example 108, 6-amino-3-(6-(tert-butylsulfonyl)-7-methoxyimidazo[1,2-a]pyridin-3-yl)picolinonitrile]
[1]
  IC50: > 1000 nM
[2]; [3]
  IC50: > 20 nM

## COc1cc2ncc(-c3cnc(N)c(C)n3)n2cc1S(=O)(=O)C(C)(C)C [Example 109, 5-(6-(tert-butylsulfonyl)-7-methoxyimidazo[1,2-a]pyridin-3-yl)-3-methylpyrazin-2-amine]
[1]
  IC50: > 1000 nM
[2]; [3]
  IC50: > 20 nM

## COc1cn2ncc(-c3cc(C#N)c(N)nc3F)c2cc1S(=O)(=O)C(C)(C)C [Example 110, 2-amino-5-(5-(tert-butylsulfonyl)-6-methoxypyrazolo[1,5-a]pyridin-3-yl)-6-fluoronicotinonitrile]
[1]
  IC50: > 1000 nM
[2]
  IC50: 2.5 to 20 nM

## COc1cc2ncc(-c3cc(F)c(N)c(C)c3F)n2cc1S(=O)(=O)C(C)(C)C [Example 111, 4-(6-(tert-butylsulfonyl)-7-methoxyimidazo[1,2-a]pyridin-3-yl)-3,6-difluoro-2-methylaniline]
[1]
  IC50: 50 to 250 nM
[2]
  IC50: 1 to 2.5 nM

## CCOc1nc(N)c(F)cc1-c1cnc2cc(OC)c(S(=O)(=O)C(C)(C)C)cn12 [Example 112, 5-(6-(tert-butylsulfonyl)-7-methoxyimidazo[1,2-a]pyridin-3-yl)-6-ethoxy-3-fluoropyridin-2-amine]
[1]
  IC50: > 1000 nM
[2]
  IC50: 2.5 to 20 nM

## COc1cc2ncc(-c3cc(F)c(N)nc3OC(C)C)n2cc1S(=O)(=O)C(C)(C)C [Example 113, 5-(6-(tert-butylsulfonyl)-7-methoxyimidazo[1,2-a]pyridin-3-yl)-3-fluoro-6-isopropoxypyridin-2-amine]
[1]
  IC50: > 1000 nM
[2]; [3]
  IC50: > 20 nM

## CCOc1cn2ncc(-c3cc(Cl)c(N)nc3F)c2cc1S(=O)(=O)C(C)(C)C [Example 114, 5-(5-(tert-butylsulfonyl)-6-ethoxypyrazolo[1,5-a]pyridin-3-yl)-3-chloro-6-fluoropyridin-2-amine]
[1]
  IC50: 50 to 250 nM
[2]
  IC50: 1 to 2.5 nM

## CCOc1cn2ncc(-c3cc(F)c(N)nc3F)c2cc1S(=O)(=O)C(C)(C)C [Example 115, 5-(5-(tert-butylsulfonyl)-6-ethoxypyrazolo[1,5-a]pyridin-3-yl)-3,6-difluoropyridin-2-amine]
[1]
  IC50: 250 to 1000 nM
[2]
  IC50: 2.5 to 20 nM

## CC(C)(C)S(=O)(=O)c1cn2c(-c3cc(F)c(N)nc3F)cnc2cc1OC(F)F [Example 116, 5-(6-(tert-butylsulfonyl)-7-(difluoromethoxy)imidazo[1,2-a]pyridin-3-yl)-3,6-difluoropyridin-2-amine]
[1]
  IC50: > 1000 nM
[2]
  IC50: 2.5 to 20 nM

## CCOc1cc2ncc(-c3cnc(N)c(F)c3)n2cc1S(=O)(=O)C(C)C [Example 117, 5-[6-ethoxy-5-(isopropylsulfonyl)-1,3a-diaza-3-indenyl]-3-fluoro-2-pyridylamine]
[1]
  IC50: > 1000 nM
[2]; [3]
  IC50: > 20 nM

## CCOc1cc2ncc(-c3cc(Cl)c(N)nc3F)n2cc1S(=O)(=O)C(C)C [Example 118, 3-chloro-5-[6-ethoxy-5-(isopropylsulfonyl)-1,3a-diaza-3-indenyl]-6-fluoro-2-pyridylamine]
[1]
  IC50: 250 to 1000 nM
[2]
  IC50: 2.5 to 20 nM

## CCOc1cc2ncc(-c3cc(F)c(N)nc3F)n2cc1S(=O)(=O)C(C)C [Example 119, 5-[6-ethoxy-5-(isopropylsulfonyl)-1,3a-diaza-3-indenyl]-3,6-difluoro-2-pyridylamine]
[1]
  IC50: > 1000 nM
[2]
  IC50: 2.5 to 20 nM

## CCOc1cc2ncc(-c3ccc(N)nc3F)n2cc1S(=O)(=O)C(C)C [Example 120, 5-[6-ethoxy-5-(isopropylsulfonyl)-1,3a-diaza-3-indenyl]-6-fluoro-2-pyridylamine]
[1]
  IC50: > 1000 nM
[2]; [3]
  IC50: > 20 nM

## Nc1nc(F)c(-c2cnc3ccccn23)cc1F [Example 121, 5-(1,3a-diaza-3-indenyl)-3,6-difluoro-2-pyridylamine]
[1]
  IC50: > 1000 nM
[2]; [3]
  IC50: > 20 nM

## COc1cc2ncc(-c3cc(F)c(N)nc3F)n2cc1C1(F)CCN(C)CC1 [Example 122, 3,6-difluoro-5-[5-(4-fluoro-1-methyl-4-piperidyl)-6-methoxy-1,3a-diaza-3-indenyl]-2-pyridylamine]
[1]
  IC50: > 1000 nM
[2]; [3]
  IC50: > 20 nM

## COc1cc2ncc(-c3cc(F)c(N)nc3F)n2cc1S(=O)(=O)C(C)(C)CF [Example 123, 3,6-difluoro-5-[5-(2-fluoro-1,1-dimethylethylsulfonyl)-6-methoxy-1,3a-diaza-3-indenyl]-2-pyridylamine]
[1]
  IC50: > 1000 nM
[2]; [3]
  IC50: > 20 nM

## CCCS(=O)(=O)Nc1cc(-c2cnc3cc(OC)c(S(=O)(=O)C(C)(C)C)cn23)cn(C)c1=O [Example 124, N-(5-(6-(tert-butylsulfonyl)-7-methoxyimidazo[1,2-a]pyridin-3-yl)-1-methyl-2-oxo-1,2-dihydropyridin-3-yl)propane-1-sulfonamide]
[1]
  IC50: > 1000 nM
[2]
  IC50: 2.5 to 20 nM

## COc1cc2ncc(-c3cc(NCCCO)c(=O)n(C)c3)n2cc1S(=O)(=O)C(C)(C)C [Example 125, 5-(6-(tert-butylsulfonyl)-7-methoxyimidazo[1,2-a]pyridin-3-yl)-3-((3-hydroxypropyl)amino)-1-methylpyridin-2(1H)-one]
[1]
  IC50: 50 to 250 nM
[2]
  IC50: 2.5 to 20 nM

## COc1cc(N)cc(-c2cnc3cc(OC)c(S(=O)(=O)C(C)(C)C)cn23)n1 [Example 126, 2-(6-(tert-butylsulfonyl)-7-methoxyimidazo[1,2-a]pyridin-3-yl)-6-methoxypyridin-4-amine]
[1]
  IC50: > 1000 nM
[2]; [3]
  IC50: > 20 nM

## COc1cc2ncc(-c3ccc(F)c(N)c3)n2cc1S(=O)(=O)C(C)(C)C [Example 127, 5-(6-(tert-butylsulfonyl)-7-methoxyimidazo[1,2-a]pyridin-3-yl)-2-fluoroaniline]
[1]
  IC50: > 1000 nM
[2]; [3]
  IC50: > 20 nM

## COc1cc2ncc(-c3cnc(N)c(N)n3)n2cc1S(=O)(=O)C(C)(C)C [Example 128, 5-(6-(tert-butylsulfonyl)-7-methoxyimidazo[1,2-a]pyridin-3-yl)pyrazine-2,3-diamine]
[1]
  IC50: > 1000 nM
[2]; [3]
  IC50: > 20 nM

## COc1cc2ncc(-c3cc(F)nc(OCCCO)c3)n2cc1S(=O)(=O)C(C)(C)C [Example 129, 3-({6-fluoro-4-[7-methoxy-6-(2-methylpropane-2-sulfonyl)imidazo[1,2-a]pyridin-3-yl]pyridin-2-yl}oxy)propan-1-ol]
[1]
  IC50: > 1000 nM
[2]; [3]
  IC50: > 20 nM

## CCCS(=O)(=O)Nc1cc(-c2cnc3cc(OC)c(S(=O)(=O)C(C)(C)C)cn23)ccc1OC [Example 130, N-{2-methoxy-5-[7-methoxy-6-(2-methylpropane-2-sulfonyl)imidazo[1,2-a]pyridin-3-yl]phenyl}propane-1-sulfonamide]
[1]
  IC50: 250 to 1000 nM
[2]
  IC50: 1 to 2.5 nM

## CCCS(=O)(=O)Nc1cc(OC)cc(-c2cnc3cc(OC)c(S(=O)(=O)C(C)(C)C)cn23)c1 [Example 131, N-{3-methoxy-5-[7-methoxy-6-(2-methylpropane-2-sulfonyl)imidazo[1,2-a]pyridin-3-yl]phenyl}propane-1-sulfonamide]
[1]
  IC50: < 50 nM
[2]; [3]
  IC50: < 1 nM

## CCCS(=O)(=O)Nc1cc(OC)cc(-c2cnc3cc(OCC)c(S(=O)(=O)C(C)C)cn23)c1 [Example 132, N-{3-[7-ethoxy-6-(propane-2-sulfonyl)imidazo[1,2-a]pyridin-3-yl]-5-methoxyphenyl}propane-1-sulfonamide]
[1]
  IC50: 50 to 250 nM
[2]; [3]
  IC50: < 1 nM

## CCCS(=O)(=O)Nc1cc(-c2cnc3cc(OCC)c(S(=O)(=O)C(C)C)cn23)ccc1OC [Example 133, N-{5-[7-ethoxy-6-(propane-2-sulfonyl)imidazo[1,2-a]pyridin-3-yl]-2-methoxyphenyl}propane-1-sulfonamide]
[1]
  IC50: 250 to 1000 nM
[2]
  IC50: 2.5 to 20 nM

## CCCS(=O)(=O)Nc1cc(-c2cnc3cc(OC)c(S(=O)(=O)C(C)(C)C)cn23)ccc1OC(F)(F)F [Example 134, N-{5-[7-methoxy-6-(2-methylpropane-2-sulfonyl)imidazo[1,2-a]pyridin-3-yl]-2-(trifluoromethoxy)phenyl}propane-1-sulfonamide]
[1]
  IC50: 250 to 1000 nM
[2]
  IC50: 2.5 to 20 nM

## CCCS(=O)(=O)Nc1cc(OC(F)(F)F)cc(-c2cnc3cc(OC)c(S(=O)(=O)C(C)(C)C)cn23)c1 [Example 135, N-{3-[7-methoxy-6-(2-methylpropane-2-sulfonyl)imidazo[1,2-a]pyridin-3-yl]-5-(trifluoromethoxy)phenyl}propane-1-sulfonamide]
[1]
  IC50: > 1000 nM
[2]
  IC50: 2.5 to 20 nM

## CCCS(=O)(=O)Nc1cc(-c2cnc3cc(OC)c(S(=O)(=O)C(C)(C)C)cn23)cc(OC)c1C [Example 136, N-(5-(6-(tert-Butylsulfonyl)-7-methoxyimidazo[1,2-a]pyridin-3-yl)-3-methoxy-2-methylphenyl)propane-1-sulfonamide]
[1]
  IC50: > 1000 nM
[2]
  IC50: 2.5 to 20 nM

## CCCS(=O)(=O)Nc1cc(-c2cnc3cc(OC)c(C(=O)N(C)C)cn23)cc(OC)c1OC [Example 137, 3-[3,4-dimethoxy-5-(propane-1-sulfonamido)phenyl]-7-methoxy-N,N-dimethylimidazo[1,2-a]pyridine-6-carboxamide]
[1]
  IC50: 250 to 1000 nM
[2]
  IC50: 2.5 to 20 nM

## CCCS(=O)(=O)Nc1cc(-c2cnc3cc(OC)c(S(=O)(=O)C(C)(C)C)cn23)cc(OC(F)(F)F)c1F [Example 138, N-{2-fluoro-5-[7-methoxy-6-(2-methylpropane-2-sulfonyl)imidazo[1,2-a]pyridin-3-yl]-3-(trifluoromethoxy)phenyl}propane-1-sulfonamide]
[1]
  IC50: > 1000 nM
[2]; [3]
  IC50: > 20 nM
